Assay results reported in US20240117005A1, “NOVEL BICYCLIC PEPTIDES” (THE COUNCIL OF THE QUEENSLAND INSTITUTE OF MEDICAL RESEARCH, priority 2021, published 2024).
“Also recorded” adds a separate entry of the source. No end group written: not given here. *: point of attachment. Myristyl = CCCCCCCCCCCCCC*

Experiments:
[1] = tested on: CSV, ABCB5, EGFR, FOXQ1, E-Cadherin in MDA-MB-231-Br cells; assay: High resolution digital pathology of mesenchymal/epithelial markers, MDA-MB-231-Br; assay type: cell-based, human
Description: To examine the signature of CD8, CSV, EGFR, ABCB5, FOXQ1, commercial PD-L1-28-8, nuclear PD-L1, cytoplasmic PDL1 in MDA-MB-231 TNBC cells/TNBC brain cancer clone cells (untreated or treated with bicyclic inhibitors targeting nuclear PD-L1-PTM1). MDA-MB-231/MDA-MB-231-Br cells were permeabilised by incubating with 0.5% Triton X-100 for 15 min, blocked with 1% BSA in PBS and were probed with either CSV (Mouse host), CD8 (mouse host), EGFR (Rabbit host), ABCB5 (Goat Host), ALDH1A (Rabbit Host), NODAL (Goat Host), nuclear PDL1 (rabbit host), cytoplasmic PD-L1 (rabbit host) visualized with a donkey anti-rabbit AF 488, anti-mouse AF 568, donkey anti-goat 647. […] Digital images were analyzed using automated ASI software (Applied Spectral Imaging, Carlsbad, CA) to determine the distribution and intensities automatically with automatic thresholding and background correction of the average nuclear fluorescence intensity (NFI), allowing for the specific targeting of expression of proteins of interest. Digital images were also analysed using ImageJ software (ImageJ, NIH, Bethesda, MD, USA) to determine the total cell fluorescence or cell surface only fluorescence for non-permeabilised cells. Digital images were analysed using ImageJ software (ImageJ, NIH, Bethesda, MD, USA) to determine either the Total Nuclear Fluorescent Intensity (TNFI), the Total Cytoplasmic Fluorescent Intensity (TCFI). […]

PD-L1-Me3 (PD-L1-PTM2) = assay: High resolution digital pathology of PD-L1-Me3 (PDL1-PTM2) localisation; assay type: cell-based, human; details: for cytoplasmic expression of PDL1-PTM2 (PDL1-Me3): MDA-MB-231, vs vehicle control
Description: To examine the signature of CD8, CSV, EGFR, ABCB5, FOXQ1, commercial PD-L1-28-8, nuclear PD-L1, cytoplasmic PDL1 in MDA-MB-231 TNBC cells/TNBC brain cancer clone cells (untreated or treated with bicyclic inhibitors targeting nuclear PD-L1-PTM1). MDA-MB-231/MDA-MB-231-Br cells were permeabilised by incubating with 0.5% Triton X-100 for 15 min, blocked with 1% BSA in PBS and were probed with either CSV (Mouse host), CD8 (mouse host), EGFR (Rabbit host), ABCB5 (Goat Host), ALDH1A (Rabbit Host), NODAL (Goat Host), nuclear PDL1 (rabbit host), cytoplasmic PD-L1 (rabbit host) visualized with a donkey anti-rabbit AF 488, anti-mouse AF 568, donkey anti-goat 647. Cover slips were mounted on glass microscope slides with ProLong Glass Antifade reagent (Life Technologies). Protein targets were localised by digital pathology laser scanning microscopy. Single 0.5 μm sections were obtained using a ASI Digital pathology microscope using 100× oil immersion lens running ASI software. The final image was obtained by averaging four sequential images of the same section. Digital images were analyzed using automated ASI software (Applied Spectral Imaging, Carlsbad, CA) to determine the distribution and intensities automatically with automatic thresholding and background correction of the average nuclear fluorescence intensity (NFI), allowing for the specific targeting of expression of proteins of interest. Digital images were also analysed using ImageJ software (ImageJ, NIH, Bethesda, MD, USA) to determine the total cell fluorescence or cell surface only fluorescence for non-permeabilised cells. Digital images were analysed using ImageJ software (ImageJ, NIH, Bethesda, MD, USA) to determine either the Total Nuclear Fluorescent Intensity (TNFI), the Total Cytoplasmic Fluorescent Intensity (TCFI). ImageJ software with automatic thresholding and manual selection of regions of interest (ROIs) specific for cell nuclei was used to calculate the Pearson's co-efficient correlation (PCC) for each pair of antibodies. PCC values range from: −1=inverse of co-localisation, 0=no co-localisation, +1=perfect co-localisation. The Mann-Whitney nonparametric test (GraphPad Prism, GraphPad Software, San Diego, CA) was used to determine significant differences between datasets.
All breast cancer cell lines used were sourced from ATCC. MDA-MB-231 or MDB-MB-231-Br cell lines were maintained and cultured in DMEM (Invitrogen) supplemented with 10% FBS, 2 mM L-glutamine, and 1% PSN. MCF-7 cells were stimulated with 1.29 ng/mL phorbol 12-myristate 13-acetate (PMA) (Sigma-Aldrich) or 5 ng/ml recombinant TGF-β1 (R&D Systems) for 60 hours. For inhibitor studies, 2×10^5 cells were seeded in 2 mL complete media in 6 well plates and incubated overnight at 37° C./5% CO2. Cells were treated with PD-L1 bicyclic peptides targeting the nuclear axis PD-L1, HDAC2i or vehicle control. For qPCR analysis, at each time point, adherent cells were trypsinized, washed and cell pellets stored at −80° C. until further processing. For microscopy studies, 4×10^4 cells were seeded on coverslips and treated with inhibitors as described above. At each timepoint, coverslips were washed, fixed with 3.7% formaldehyde (Sigma) and stored at 4° C. until processing. […]
MDA-MB-231 were permeabilized and treated with either vehicle control or, DL-2 (current stock), or linear PDL1 (PDL1-L1). […] Significant differences are calculated as one-way ANOVA Kruskal-Wallis test comparison to vehicle control. […]

[2] = target: T1, complex of PDL1-PTM1 and IMPα1 (Mus musculus, UniProt P52293); assay: DUOLINK proximity assay PDL1-PTM1 and IMPα1, CT26; assay type: cell-based
T1 construct: endogenous in cells; host or cells: CT26
Description: (A) CT26, 4T1 or MDA-MB-231 Cells were treated with inhibitors for 72 hours. Following inhibition, media was removed and replaced with WST-1 cell proliferation reagent. Absorbance was recorded at 450 nm after 1 hour. Data represent a single independent experiment performed in triplicate. Results are graphed as mean +/− standard error (SE). B) MDA-MB-231 or CT26 cancer cells were treated with vehicle control, DL-2-Batch 1 (original stock), DL-2-Batch 2 (current stock), DL-2-TBAB or linear PDL1. Cells were permeabilised and were probed with the DUOLINK ligation assay. Cover slips were mounted on glass microscope slides with ProLong nucblue glass Antifade reagent (Life Technologies). PDL1Ac and IMPα1 DUOLINK Digital images were analysed using ImageJ software (ImageJ, NIH, Bethesda, MD, USA) and graphs represent the mean DOT Fluorescent Intensity in the nucleus or the cytoplasm compartments with significant differences calculated as per one-way ANOVA comparison. […] PDL1-unmodified and IMPα1 DUOLINK digital images were analysed using ImageJ software (ImageJ, NIH, Bethesda, MD, USA) and graphs represent the mean DOT fluorescent intensity in the nucleus or the cytoplasm compartments with significant differences calculated as per one-way ANOVA comparison. […]

Compound	expression of the epithelial marker E-Cadherin [1]	mesenchymal stem-like resistant protein markers (CSV, ABCB5, EGFR, FOXQ1) ([1]; vs vehicle control)	cytoplasmic expression of PDL1-PTM2 (PDL1-Me3) (PD-L1-Me3 (PD-L1-PTM2))	expression of cell surface PD-L1-Me3 (PD-L1-Me3 (PD-L1-PTM2); non-permeabilized MDA-MB-231 cells)	cytoplasmic/cell surface PD-L1-Me3 (PD-L1-Me3 (PD-L1-PTM2); permeabilized MDA-MB-231 cells)	expression of nuclear PD-L1-Me3 (PD-L1-Me3 (PD-L1-PTM2); permeabilized MDA-MB-231 cells)	complex of PDL1-PTM1 and IMPα1 (DUOLINK) [2]	cytoplasmic expression of PDL1-PTM2 (PDL1-Me3) (PD-L1-Me3 (PD-L1-PTM2); listed as linear PDL1 peptide)
CCCCCCCCCCCCCC(=O)NC(C)C(=O)NC1CSCc2cc3cc(c2)CSC[C@H](NC(=O)[C@H](Cc2ccccc2)NC(=O)[C@H](C(C)CC)NC(=O)[C@H](Cc2ccccc2)NC(=O)[C@H]([C@@H](C)O)NC(=O)C(CC(C)C)NC1=O)C(=O)N[C@@H](CCCNC(C)=N)C(=O)N[C@@H](CC(C)C)C(=O)N[C@@H](CCCNC(=N)N)C(=O)N[C@@H](CCCCN)C(=O)NCC(=O)N[C@@H](CCCNC(=N)N)C(=O)NC(C(=O)N[C@@H](CCSC)C(=O)NC(CCSC)C(=O)N[C@@H](CC(=O)O)C(=O)NC(C(=O)N[C@@H](CCCCN)C(=O)NC(CCCCN)C(=O)O)C(C)C)CSC3 (mixture of isomers) [DL-2]	able to induce expression	significantly inhibit	induce increased cytoplasmic expression	significant upregulation	significantly upregulating	abrogating	able to successfully abrogate the complex	
LTFIFRLRKGRMMDVKK (Myristyl-LTFIFRLRKGRMMDVKK) [PDL1-L1, Myristyl- linear peptide, prototype]							no change	not able to induce any increased expression; also recorded: did not induce any increased expression
